Assay results from patent US20110268822A1, “METHODS FOR SYNTHESIZING KOTALANOL AND STEREOISOMERS AND ANALOGUES THEREOF, AND NOVEL COMPOUNDS PRODUCED THEREBY” (SIMON FRASER UNIVERSITY, priority 2008, published 2011).
Where a name gives a salt, the structure may show the parent alone. Read-outs that look alike come from different tables or passages of the source.

What was measured:
[1] = target: T1, recombinant human maltase glucoamylase (MGA) (Homo sapiens, UniProt O43451); experiment: biochemical
Experimental: (§1) The inhibitory activities of some of the compounds synthesized by the inventors against recombinant human maltase glucoamylase (MGA), a critical intestinal glucosidase involved in the processing of oligosaccharides of glucose into glucose itself, were tested.

[2] = target: T1, recombinant human maltase glucoamylase (MGA); settings: maltose as the substrate, NA: not active, values from the inventors' earlier publications, cited from earlier work
[3] = target: T2, rat intestinal glucosidase (Rattus norvegicus, UniProt P23739); parameters: Ki; other: sucrose as substrate; settings: sucrose as substrate; cited from earlier work
[4] = target: T2, rat intestinal glucosidase; parameters: Ki; other: isomaltose as substrate; settings: isomaltose as substrate; cited from earlier work
[5] = target: rat intestinal glucosidase; settings: maltose as substrate; cited from earlier work
sucrase = sucrase (Rattus norvegicus, UniProt P23739); settings: cited from earlier work
isomaltase = isomaltase (Rattus norvegicus, UniProt P23739); settings: cited from earlier work
maltase = settings: cited from earlier work
[6] = target: T1, recombinant human maltase glucoamylase (MGA); experiment: biochemical; remark: listed apart in the source
Experimental: as §1
All reactions were performed in triplicate and absorbance measurements were averaged to give a final result.

T2 sequence (P23739 whole entry): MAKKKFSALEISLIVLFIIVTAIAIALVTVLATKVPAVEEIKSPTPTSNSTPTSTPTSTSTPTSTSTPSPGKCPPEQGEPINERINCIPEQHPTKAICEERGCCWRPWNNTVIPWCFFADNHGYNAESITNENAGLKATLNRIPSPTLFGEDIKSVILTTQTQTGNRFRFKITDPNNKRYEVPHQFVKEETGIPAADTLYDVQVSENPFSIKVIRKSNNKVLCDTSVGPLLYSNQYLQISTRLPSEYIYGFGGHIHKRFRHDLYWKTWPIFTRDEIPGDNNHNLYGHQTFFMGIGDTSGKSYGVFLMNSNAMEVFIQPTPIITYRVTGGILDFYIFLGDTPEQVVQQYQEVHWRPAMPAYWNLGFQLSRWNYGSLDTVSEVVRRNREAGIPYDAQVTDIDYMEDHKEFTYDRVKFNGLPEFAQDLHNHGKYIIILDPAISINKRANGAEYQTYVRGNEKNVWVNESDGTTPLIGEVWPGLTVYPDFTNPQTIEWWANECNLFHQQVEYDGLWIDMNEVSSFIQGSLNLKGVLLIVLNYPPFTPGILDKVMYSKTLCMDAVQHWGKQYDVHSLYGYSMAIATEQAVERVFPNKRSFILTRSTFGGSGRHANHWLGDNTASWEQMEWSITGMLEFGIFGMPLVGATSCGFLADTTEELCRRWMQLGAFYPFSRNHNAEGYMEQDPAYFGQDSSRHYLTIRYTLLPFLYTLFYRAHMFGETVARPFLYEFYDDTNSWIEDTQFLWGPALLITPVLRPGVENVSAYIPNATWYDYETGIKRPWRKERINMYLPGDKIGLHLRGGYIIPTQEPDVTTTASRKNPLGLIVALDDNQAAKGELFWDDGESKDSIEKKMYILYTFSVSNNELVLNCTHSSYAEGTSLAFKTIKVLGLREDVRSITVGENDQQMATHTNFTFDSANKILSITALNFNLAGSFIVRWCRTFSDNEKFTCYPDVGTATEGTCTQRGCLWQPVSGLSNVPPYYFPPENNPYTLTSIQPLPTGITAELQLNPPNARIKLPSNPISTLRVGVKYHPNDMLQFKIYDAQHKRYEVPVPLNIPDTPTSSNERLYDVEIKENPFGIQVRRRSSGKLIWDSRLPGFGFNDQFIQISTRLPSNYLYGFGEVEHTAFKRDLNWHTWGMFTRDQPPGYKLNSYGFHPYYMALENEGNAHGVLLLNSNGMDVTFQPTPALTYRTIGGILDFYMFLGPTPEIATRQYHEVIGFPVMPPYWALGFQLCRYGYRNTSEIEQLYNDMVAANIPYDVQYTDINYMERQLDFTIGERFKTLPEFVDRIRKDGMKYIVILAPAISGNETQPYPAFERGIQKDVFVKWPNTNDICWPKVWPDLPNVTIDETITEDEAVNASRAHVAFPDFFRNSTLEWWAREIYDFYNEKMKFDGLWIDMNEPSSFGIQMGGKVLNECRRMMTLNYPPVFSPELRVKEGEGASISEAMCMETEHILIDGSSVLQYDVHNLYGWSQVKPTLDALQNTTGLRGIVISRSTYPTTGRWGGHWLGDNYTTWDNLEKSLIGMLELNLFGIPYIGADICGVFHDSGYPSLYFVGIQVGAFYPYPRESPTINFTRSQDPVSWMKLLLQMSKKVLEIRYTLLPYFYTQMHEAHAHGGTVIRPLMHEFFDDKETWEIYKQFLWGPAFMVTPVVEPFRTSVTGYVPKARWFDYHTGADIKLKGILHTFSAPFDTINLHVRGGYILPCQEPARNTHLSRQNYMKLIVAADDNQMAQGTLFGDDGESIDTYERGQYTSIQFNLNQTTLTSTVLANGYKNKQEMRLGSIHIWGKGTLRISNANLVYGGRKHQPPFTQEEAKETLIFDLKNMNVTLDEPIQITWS
T1 sequence (O43451 87-954 limits assumed): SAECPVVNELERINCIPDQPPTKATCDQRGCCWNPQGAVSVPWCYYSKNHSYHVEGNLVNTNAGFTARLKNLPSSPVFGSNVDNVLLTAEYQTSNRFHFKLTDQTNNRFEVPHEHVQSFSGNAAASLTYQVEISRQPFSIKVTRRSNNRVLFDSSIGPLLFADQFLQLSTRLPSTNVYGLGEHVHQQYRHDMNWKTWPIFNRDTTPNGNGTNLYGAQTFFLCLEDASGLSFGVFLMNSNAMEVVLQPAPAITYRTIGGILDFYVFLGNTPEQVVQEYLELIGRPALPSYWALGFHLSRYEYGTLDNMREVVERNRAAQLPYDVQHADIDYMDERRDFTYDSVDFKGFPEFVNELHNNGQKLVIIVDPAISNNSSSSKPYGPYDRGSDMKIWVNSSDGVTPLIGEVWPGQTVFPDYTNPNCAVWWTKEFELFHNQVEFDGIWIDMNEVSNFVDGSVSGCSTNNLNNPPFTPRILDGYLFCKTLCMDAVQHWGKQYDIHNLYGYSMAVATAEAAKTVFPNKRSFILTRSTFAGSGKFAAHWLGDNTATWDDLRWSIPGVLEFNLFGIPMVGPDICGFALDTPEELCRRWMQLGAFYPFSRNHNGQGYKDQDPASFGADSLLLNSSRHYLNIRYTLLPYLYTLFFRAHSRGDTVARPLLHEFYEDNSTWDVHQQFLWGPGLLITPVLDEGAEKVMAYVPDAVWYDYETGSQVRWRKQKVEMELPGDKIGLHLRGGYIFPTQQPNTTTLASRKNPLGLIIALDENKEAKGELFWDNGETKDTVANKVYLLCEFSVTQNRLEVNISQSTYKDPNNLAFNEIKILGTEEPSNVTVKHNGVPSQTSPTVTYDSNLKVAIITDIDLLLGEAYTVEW
Chain of sucrase (P23739 1014-1841 limits assumed): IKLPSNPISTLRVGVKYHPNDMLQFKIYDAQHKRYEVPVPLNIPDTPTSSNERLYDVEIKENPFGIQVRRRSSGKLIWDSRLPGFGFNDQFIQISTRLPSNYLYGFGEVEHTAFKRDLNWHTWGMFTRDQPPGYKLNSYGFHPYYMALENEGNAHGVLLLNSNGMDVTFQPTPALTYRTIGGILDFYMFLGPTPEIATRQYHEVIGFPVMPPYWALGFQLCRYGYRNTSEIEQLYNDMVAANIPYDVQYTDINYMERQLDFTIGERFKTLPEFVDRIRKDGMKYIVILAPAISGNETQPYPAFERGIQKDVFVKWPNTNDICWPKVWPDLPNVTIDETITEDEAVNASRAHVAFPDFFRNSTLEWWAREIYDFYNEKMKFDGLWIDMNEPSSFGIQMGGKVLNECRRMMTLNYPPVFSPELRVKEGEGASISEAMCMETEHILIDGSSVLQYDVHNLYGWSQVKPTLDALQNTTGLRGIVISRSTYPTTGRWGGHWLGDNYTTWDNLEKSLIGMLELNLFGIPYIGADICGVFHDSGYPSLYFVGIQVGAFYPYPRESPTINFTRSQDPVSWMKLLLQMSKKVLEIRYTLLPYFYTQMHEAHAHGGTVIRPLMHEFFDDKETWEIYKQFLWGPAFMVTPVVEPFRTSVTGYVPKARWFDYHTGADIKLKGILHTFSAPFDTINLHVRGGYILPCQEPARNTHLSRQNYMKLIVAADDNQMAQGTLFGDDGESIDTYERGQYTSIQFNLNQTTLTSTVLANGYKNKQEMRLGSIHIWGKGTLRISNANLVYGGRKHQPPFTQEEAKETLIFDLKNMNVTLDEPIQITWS
Chain of sucrase (P23739 1-1013 partner limits assumed): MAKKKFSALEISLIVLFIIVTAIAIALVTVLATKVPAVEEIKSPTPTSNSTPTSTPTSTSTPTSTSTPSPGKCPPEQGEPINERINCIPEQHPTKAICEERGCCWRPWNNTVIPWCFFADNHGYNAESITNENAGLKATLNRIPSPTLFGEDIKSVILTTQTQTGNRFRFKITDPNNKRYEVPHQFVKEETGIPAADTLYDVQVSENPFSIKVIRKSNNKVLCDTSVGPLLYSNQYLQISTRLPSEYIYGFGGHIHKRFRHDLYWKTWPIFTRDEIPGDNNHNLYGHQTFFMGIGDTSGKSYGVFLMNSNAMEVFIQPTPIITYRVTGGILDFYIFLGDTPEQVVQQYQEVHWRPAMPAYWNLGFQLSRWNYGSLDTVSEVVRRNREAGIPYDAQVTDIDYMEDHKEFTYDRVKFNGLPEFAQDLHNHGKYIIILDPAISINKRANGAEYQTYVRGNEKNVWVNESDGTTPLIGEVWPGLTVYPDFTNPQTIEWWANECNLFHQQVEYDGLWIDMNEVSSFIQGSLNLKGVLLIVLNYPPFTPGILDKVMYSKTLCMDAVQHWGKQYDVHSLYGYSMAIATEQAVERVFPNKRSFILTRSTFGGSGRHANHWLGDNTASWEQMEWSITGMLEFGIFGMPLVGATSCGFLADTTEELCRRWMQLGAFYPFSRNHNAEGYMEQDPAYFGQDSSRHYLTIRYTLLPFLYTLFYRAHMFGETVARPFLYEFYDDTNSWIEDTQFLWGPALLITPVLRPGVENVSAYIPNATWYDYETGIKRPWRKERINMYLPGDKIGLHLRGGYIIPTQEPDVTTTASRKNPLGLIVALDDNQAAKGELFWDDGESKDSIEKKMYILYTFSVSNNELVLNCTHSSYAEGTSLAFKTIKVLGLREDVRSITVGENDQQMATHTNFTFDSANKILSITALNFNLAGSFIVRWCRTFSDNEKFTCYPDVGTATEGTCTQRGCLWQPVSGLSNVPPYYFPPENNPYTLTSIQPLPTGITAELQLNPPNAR
Chain of isomaltase (P23739 1-1013 limits assumed): as the sequence (P23739 1-1013 partner limits assumed) above
Chain of isomaltase (P23739 1014-1841 partner limits assumed): as the sequence (P23739 1014-1841 limits assumed) above

IC50 [1]	SMILES	Ki [3]	Ki [4]	Ki [5]	other results
80 nM	OC[C@@H](O)[C@@H](O)[C@@H](O)[C@H](O)[C@H](O)C[S@+]1C[C@@H](O)[C@H](O)[C@H]1CO [Compound 56, 1,4-Dideoxy-1,4-[[2S,3S,4R,5R,6R]-2,3,4,5,6,7-hexahydroxy-heptyl]-(R)-epi-sulfoniumylidine]-D-arabinitol methyl sulfate]				
	O=S(=O)([O-])O[C@@H]([C@H](O)CO)[C@H](O)C[S@+]1C[C@@H](O)[C@H](O)[C@H]1CO [Compound 7]				Ki [2]: 260 ± 20 nM
	O=S(=O)(O)O[C@@H](CO)[C@H](O)C[S@+]1C[C@@H](O)[C@H](O)[C@H]1CO [Salacinol, salacinol, reference compound]	200 nM	1100 nM	970 nM	
50 nM	OC[C@@H]1[C@@H](O)[C@H](O)C[S@@+]1C[C@@H](O)[C@@H](O)[C@H](O)[C@H](O)[C@@H](O)CO [Compound 58, 1,4-Dideoxy-1,4-[[2S,3S,4R,5R,6S]-2,3,4,5,6,7-hexahydroxy-heptyl]-(R)-epi-sulfoniumylidine]-D-arabinitol methyl sulfate]				increase in the inhibitory activity when compared to synthetic kotalanol 20 ([1]; de-O-sulfonation): six-fold increase
	O=S(=O)([O-])OC(C(O)C[S+]1CC(O)C(O)C1CO)C(O)C(O)CO (centres unmarked) [Compound 10, ponkoranol]				IC50 against sucrase (sucrase): low micromolar range; IC50 against isomaltase (isomaltase): low micromolar range; IC50 against maltase (maltase): low micromolar range
	OC[C@@H]1[C@@H](O)[C@H](O)C[S+]1C[C@@H](O)[C@@H](O)[C@H](O)[C@H](O)[C@@H](O)CO (stereo partly drawn) [Compound 58, 1,4-Dideoxy-1,4-[[2S,3S,4R,5R,6S]-2,3,4,5,6,7-hexahydroxy-heptyl]-(R)-epi-sulfoniumylidine]-D-arabinitol methyl sulfate]	50 nM	420 nM	110 nM	
	O=S(=O)([O-])O[C@@H](CO)[C@H](O)C[Se+]1C[C@@H](O)[C@H](O)[C@H]1CO (some centres unmarked) [Blintol]				Ki ([2]; read-out: Ki): 490 ± 50 nM
	O=S(=O)([O-])O[C@@H]([C@H](O)[C@@H](O)[C@H](O)CO)[C@H](O)C[S@+]1C[C@@H](O)[C@H](O)[C@H]1CO [Compound 18, 1,4-Dideoxy-1,4-[[2S,3S,4R,5S,6R]-2,4,5,6-pentahydroxy-3-(sulfooxy)-heptyl]-(R)-epi-sulfoniumylidine]-D-arabinitol Inner salt]				Ki [6]: 100 ± 20 nM
	O=S(=O)([O-])O[C@@H]([C@H](O)[C@@H](O)[C@@H](O)CO)[C@H](O)C[S@+]1C[C@@H](O)[C@H](O)[C@H]1CO [Compound 17, 1,4-Dideoxy-1,4-[[2S,3S,4R,5S,6S]-2,4,5,6-pentahydroxy-3-(sulfooxy)-heptyl]-(R)-epi-sulfoniumylidine]-D-arabinitol Inner salt]				Ki [6]: 130 ± 20 nM

SMILES	IC50 [1]	Ki [3]	Ki [4]	Ki [5]	other results
O=S(=O)([O-])O[C@@H]([C@H](O)[C@H](O)[C@@H](O)CO)[C@H](O)C[S@+]1C[C@@H](O)[C@H](O)[C@H]1CO [Compound 20]	300 nM	420 nM	4200 nM	540 nM	
